The values below come from patent publication US20060229358A1, “Pharmaceutical composition containing flavonoids” (Taipei Medical University, priority 2005, published 2006).

Experiment [1] concerns PDE4H (HARBS). The following applies: cited from earlier work; for PDE4H/PDE4L ratio: references [24-26].
For experiment [2], the target named is T1, high affinity rolipram binding sites (HARBS, PDE4H).
T1 construct: IC50 for displacement of [3H]-rolipram from HARBS; other: 300 μM, guinea pig, preliminary experimental data; other: guinea pig whole brain particulates; over 300 μM not available due
Kind of experiment: Binding to particulate HARBS of whole brain, displacement of [3H]-rolipram (Assay II). Set-up: species or system guinea pig. The following applies: 2 nM [3H]-rolipram, guinea pig whole brain particulates, FIG. 2; read-out: IC50 for displacement of [3H]-rolipram from HARBS. As for the experimental part: The binding experiments are carried on basis of the methods of Schneider et al. and Zhao et al. with a small modification. Under a protocol approved by the Animal Care and Use Committee of Taipei Medical University, five male guinea pigs (Hartley), weighing 500-600 g, were anesthetized. The whole brains taken therefrom were homogenized with in 10 volumes of cold medium (pH 6.5) containing 20 mM Bis-Tris, 2 mM benzamidine, 2 mM EDTA, 50 mM sodium chloride, 0.1 mM phenylmethanesulfonyl fluoride (PMSF), and 1 mM dithiothreitol. At 4° C., the homogenate was centrifuged at 170 g for 15 min for removing blood vessels and connective tissues, and the supernatant thereof was then re-centrifuged at 40,000 g for 30 min for separating the particulates from the cytosol of cells.
After incubation, the reaction was stopped by transferring the reaction vessel to a bath of crashed ice. Then the reaction mixture was filtered through a punched glass fiber filter (Whatman GF/B) placed in a mini funnel, which was adopted to a 1.5 ml of Eppendorff's tube for collecting the filtrate in the mini centrifuge at 1000 rpm for 10 seconds. By the same way (centrifugation), it is further washed with 0.3 ml reaction buffer each for three times. The Whatman GF/B filter was mixed with 2 ml of cocktail and counted by the β-scintillation counter (Backman, Fullerton, Calif., USA) for counting the radioactivity thereof.
On the technique in general: Loss of bound radioactivity is the signal in a displacement assay; it reports binding, not function.

For experiment [3], the system named is PDE4H (HARBS). Kind of experiment: Literature binding to brain HARBS (PDE4H). The following applies: worked out from the cited EC50 values. From the text:
Recently, in United States of American and Europe, the selective inhibitors for the PDE4 are considered as the important materials for treating asthma or chronic obstructive pulmonary disease (COPD). In addition, the clinical trials thereof are considered safe and effective, whereas they have side effects, such as vomiting, gastric hypersecretion, etc.. […] In the brain, there are two binding sites for rolipram, which are high (HARBS) and low affinity rolipram binding sites (LARBS), while in the periphery of bronchi and lung there exist only LARBS. Generally, the anti-inflammatory and the bronchodilatory effects of rolipram are considered as its ability to bind with LARBS [21]. […] Therefore, the pharmaceutical factories in the world are trying to develop drugs with high PDE4H/PDE4L ratio for separating the side effects from the main therapeutic effects, while some progresses are obtained. […] Although the respective PDE4H/PDE4L ratios of roflumilast and cilomilast are much higher than that of rolipram, they are not good enough. […] It seems having a good perspective.

The test system of experiment [4] is PDE4L (LARBS). The settings on record: reference [23]; read-out: EC50 for binding PDE4L; cited from earlier work.

Where two headings read alike, the source gives them in different places.

Regarding `O=C(Nc1c(Cl)cncc1Cl)C(=O)c1cn(Cc2ccc(F)cc2)c2ccc(O)cc12` [AWD-12-281, N-(3,5-dichloro-pyrid-4-yl)-[1-(4-fluorobenzyl)-5-hydroxy-indole-3-yl]-gly oxylic acid amide], the PDE4H/PDE4L ratio result in experiment [1] is given as “about 11”.
Regarding `O=C(Nc1c(Cl)cncc1Cl)c1ccc(OC(F)F)c(OCC2CC2)c1` [roflumilast], the PDE4H/PDE4L ratio in experiment [1] is 3.
For orientation: IC50 means the point on the concentration scale where inhibition reaches its midpoint. By EC50 is commonly meant the concentration at which the effect is half-maximal. In the case of `COc1ccc(C2CNC(=O)C2)cc1OC1CCCC1` (stereo not drawn) [rolipram], in experiment [2], the IC50 came out at 7.4 nM. The PDE4H/PDE4L ratio in experiment [3] is 0.002. Further, the EC50 in experiment [1] (reference [23], read-out: EC50 for binding PDE4H) is roughly 2 nM; in experiment [4], roughly 1000 nM.
